Results published in patent US8017611B2, “Pyridine and pyrazine derivatives -083” (AstraZeneca AB, priority 2007, dated 2011).

Target: T1, recombinant Axl tyrosine kinase (Homo sapiens, UniProt P30530)
T1 construct: encompassing amino acids 473 to 894 of Axl; GST (N); made in house; host or cells: SF126 insect cells
T1 sequence (P30530 473-894): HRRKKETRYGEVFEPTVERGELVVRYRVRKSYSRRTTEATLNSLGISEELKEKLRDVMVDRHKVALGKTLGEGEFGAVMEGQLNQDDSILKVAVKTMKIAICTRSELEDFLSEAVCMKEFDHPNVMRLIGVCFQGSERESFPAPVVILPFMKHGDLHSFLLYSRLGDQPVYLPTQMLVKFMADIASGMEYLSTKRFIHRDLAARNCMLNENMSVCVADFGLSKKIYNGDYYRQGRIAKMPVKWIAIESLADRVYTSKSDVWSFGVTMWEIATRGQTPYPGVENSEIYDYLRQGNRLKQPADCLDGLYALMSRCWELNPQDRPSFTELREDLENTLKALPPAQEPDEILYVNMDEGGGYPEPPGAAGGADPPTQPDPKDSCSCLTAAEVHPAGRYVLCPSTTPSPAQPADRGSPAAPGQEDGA
Assay: In vitro Axl kinase assay (AlphaScreen), Test (a)
Assay type: biochemical
Details: for % Axl tyrosine kinase inhibition at 1 μM concentration / inhibition at 1 µM: test compound at 1 μM, first value quoted; for inhibition at 1 µM: read-out: % Axl tyrosine kinase inhibition at 1 μM concentration

| Compound | % Axl tyrosine kinase inhibition at 1 μM concentration [%] | further results |
| --- | --- | --- |
| Nc1ncc(-c2ccc(C(=O)NCCO)cc2)cc1-c1nc2cnccc2o1 [Example 8A.25] | 98.7 | – |
| Nc1ncc(-c2cnn(CCCO)c2)cc1-c1nc2ccccc2o1 [Example 29.1, 3-[4-[6-amino-5-(1,3-benzoxazol-2-yl)-3-pyridyl]pyrazol-1-yl]propan-1-ol] | – | inhibition at 1 µM: 99.7% |
| CN1CCN(c2ccc(-c3cnc(N)c(-c4nc5ncccc5o4)c3)cc2)CC1 [Example 25.7] | 99.1 | – |
| Nc1ncc(-c2ccc3[nH]ccc3c2)cc1-c1nc2ccccc2o1 [Example 2.29] | 31.3 | – |
| Nc1ncc(-c2cccc(CN3CCCC3)c2)cc1-c1nc2ccncc2o1 [Example 11A.5] | 97.4 | – |
| CNCc1nn(C2CCN(C(C)=O)CC2)cc1-c1cnc(N)c(-c2nc3ccccc3o2)c1 [Example 63, 1-[4-[4-[6-amino-5-(1,3-benzoxazol-2-yl)-3-pyridyl]-3-(methylaminomethyl)pyrazol-1-yl]-1-piperidyl]ethanone] | – | inhibition at 1 µM: 98.4% |
| CCOc1nn(C2CCNCC2)cc1-c1cnc(N)c(-c2nc3ccccc3o2)c1 [Example 25.3] | 100.0 | – |
| CS(=O)(=O)c1cccc(-c2cnc(N)c(-c3nc4ccccc4o3)n2)c1 [Example 20.9] | 92.1 | – |
| CNC(=O)[C@@H]1C[C@@H](n2cc(-c3cnc(N)c(-c4nc5ccccc5o4)c3)cn2)CN1 [Example 51, (2S,4R)-4-[4-[6-amino-5-(1,3-benzoxazol-2-yl)-3-pyridyl]pyrazol-1-yl]-N-methyl-pyrrolidine-2-carboxamide] | – | inhibition at 1 µM: 99.9% |
| CN1CCC(n2cc(-c3cnc(N)c(-c4nc5ccc(OC(F)(F)F)cc5o4)c3)cn2)CC1 [Example 7.10] | 95.7 | – |
| Nc1ncc(-c2ccc(C(=O)N3CCC(O)CC3)cc2)cc1-c1nc2cccnc2o1 [Example 9A.6] | 95.6 | – |
| N#Cc1cccc(-c2cnc(N)c(-c3nc4cnccc4o3)c2)c1 [Example 8A.11] | 89.6 | – |
| CCOc1nn(C2CCN(C)CC2)cc1-c1cnc(N)c(-c2nc3ccccc3o2)c1 [Example 41.13] | 100.0 | – |
| Nc1ncc(-c2ccc(N3CCNCC3)cc2)nc1-c1nc2ccccc2o1 [Example 20.11] | 100.0 | – |
| Cc1nn(C2CCNCC2)c(C)c1-c1cnc(N)c(-c2nc3ccccc3o2)c1 [Example 29.8] | 88.7 | – |
| CN1CCC(n2cc(-c3cnc(N)c(-c4nc5ccccc5o4)c3)c(C(=O)N(C)C)n2)CC1 [Example 41.30] | 99.5 | – |

| Compound | % Axl tyrosine kinase inhibition at 1 μM concentration [%] | further results |
| --- | --- | --- |
| Nc1ncc(-c2cnn(C3CCNCC3)c2CO)cc1-c1nc2ccccc2o1 [Example 61, [4-[6-amino-5-(1,3-benzoxazol-2-yl)-3-pyridyl]-2-(4-piperidyl)pyrazol-3-yl]methanol] | – | inhibition at 1 µM: 99.9% |
| Nc1ncc(-c2cccc(NC(=O)C3CCNCC3)c2)cc1-c1nc2cnccc2o1 [Example 8A.26] | 97.9 | – |
| Nc1ncc(-c2ccc(OCCN3CCOCC3)cc2)cc1-c1nc2ncccc2o1 [Example 43B.6] | 96.4 | – |
| Nc1ncc(-c2ccc(S(=O)(=O)NCCO)cc2)cc1-c1nc2cccnc2o1 [Example 9A.14] | 97.0 | – |
| Nc1ncc(-c2ccc(OCCOC3CCNCC3)cc2)cc1-c1nc2ncccc2o1 [Example 43B.37] | 97.6 | – |
| CCS(=O)(=O)c1cccc(-c2cnc(N)c(-c3nc4ccccc4o3)n2)c1 [Example 20.13] | 97.2 | – |
| COCC(=O)N1CCC(n2cc(-c3cnc(N)c(-c4nc5ncccc5o4)c3)cn2)CC1 [Example 56, 1-[4-[4-(6-amino-5-oxazolo[4,5-b]pyridin-2-yl-3-pyridyl)pyrazol-1-yl]-1-piperidyl]-2-methoxy-ethanone] | – | inhibition at 1 µM: 99.3% |
| CC(C)(C)OC(=O)N1CCC(C(=O)Nc2cccc(-c3cnc(N)c(-c4nc5ccncc5o4)c3)c2)CC1 [Example 11A.3] | 87.7 | – |
| CN1CC(Cn2cc(-c3cnc(N)c(-c4nc5ccccc5o4)c3)cn2)C1 [Example 41.11] | 74.7 | – |
| CN1CCN(c2ncc(-c3cnc(N)c(-c4nc5cccnc5o4)c3)s2)CC1 [Example 25.12] | 38.2 | – |
| COc1cc(-c2cnc(N)c(-c3nc4cccnc4o3)c2)ccc1OCCN1CCCC1 [Example 43C.1, 5-[3-methoxy-4-(2-pyrrolidin-1-ylethoxy)phenyl]-3-oxazolo[5,4-b]pyridin-2-yl-pyridin-2-amine] | – | inhibition at 1 µM: 99.4% |
| CC(O)c1nn(C2CCN(C)CC2)cc1-c1cnc(N)c(-c2nc3c(C#N)cccc3o2)c1 (stereo not shown) [Example 41.41] | 99.7 | – |
| COCc1nn(C2CCN(CCO)CC2)cc1-c1cnc(N)c(-c2nc3ccccc3o2)c1 [Example 72, 2-[4-[4-[6-amino-5-(1,3-benzoxazol-2-yl)-3-pyridyl]-3-(methoxymethyl)pyrazol-1-yl]-1-piperidyl]ethanol] | – | inhibition at 1 µM: 100% |
| CNS(=O)(=O)c1cccc(-c2cnc(N)c(-c3nc4ccncc4o3)c2)c1 [Example 11A.8] | 39.6 | – |
| Nc1ncc(-c2ccc(OCCCN3CCOCC3)cc2)cc1-c1nc2ncccc2o1 [Example 43B.19] | 95.8 | – |
| CNC(=O)CN1CCC(n2cc(-c3cnc(N)c(-c4nc5ccccc5o4)c3)c(COC)n2)CC1 [Example 68, 2-[4-[4-[6-amino-5-(1,3-benzoxazol-2-yl)-3-pyridyl]-3-(methoxymethyl)pyrazol-1-yl]-1-piperidyl]-N-methyl-acetamide] | – | inhibition at 1 µM: 100% |

Further lines, with some results ahead:

| % Axl tyrosine kinase inhibition at 1 μM concentration [%] | Compound | further results |
| --- | --- | --- |
| 97.7 | CCN(CC)C1CCN(C(=O)c2ccc(-c3cnc(N)c(-c4nc5cccnc5o4)c3)cc2)C1 (stereo not shown) [Example 45A.33] | – |
| 97.7 | Nc1ncc(-c2ccc(C(=O)NCCn3ccnc3)cc2)cc1-c1nc2cccnc2o1 [Example 45A.7] | – |
| 92.3 | Nc1ncc(-c2ccc(OCCOCCN3CCNCC3)cc2)cc1-c1nc2ncccc2o1 [Example 43B.43] | – |
| 92.2 | Nc1ncc(-c2ccc(C(=O)NCCN3CCC(F)(F)C3)cc2)cc1-c1nc2cccnc2o1 [Example 45A.37] | – |
| 94.3 | Nc1ncc(-c2ccc(C(=O)N3CCC(N4CCCCC4)CC3)cc2)cc1-c1nc2cccnc2o1 [Example 45A.52] | – |
| 98.2 | COCCC(=O)N1CCC(n2cc(-c3cnc(N)c(-c4nc5cccnc5o4)c3)cn2)CC1 [Example 59.8] | – |
| 99.6 | COc1cc(-c2cnc(N)c(-c3nc4ncccc4o3)c2)ccc1OC[C@H]1CCCN1 [Example 43C.24] | – |
| 98.0 | CN1CCC(N(C)C(=O)c2ccc(-c3cnc(N)c(-c4nc5cccnc5o4)c3)cc2)C1 (stereo not shown) [Example 45A.3] | – |
| 98.9 | Nc1ncc(-c2ccc(C(=O)NCCN3CCCC3)cc2)cc1-c1nc2cccnc2o1 [Example 45A.55] | – |
| 99.9 | Nc1ncc(-c2ccc(C(=O)N3CCN4CCCC4C3)cc2)cc1-c1nc2cccnc2o1 (stereo not shown) [Example 45A.74] | – |
| 93.5 | COc1cc(-c2cnc(N)c(-c3nc4ncccc4o3)c2)ccc1OCCCN1CCOCC1 [Example 43C.17] | – |
| 99.0 | COc1cc(-c2cnc(N)c(-c3nc4ncccc4o3)c2)ccc1OCCCCN [Example 43C.30] | – |
| 98.8 | Nc1ncc(-c2ccc(C(=O)NCCCn3ccnc3)cc2)cc1-c1nc2cccnc2o1 [Example 45A.53] | – |
| 99.1 | CN(C(=O)c1ccc(-c2cnc(N)c(-c3nc4cccnc4o3)c2)cc1)C1CCNCC1 [Example 45A.96] | – |
| 100.0 | COCc1nn(C2CCN(C(=O)[C@H](C)O)CC2)cc1-c1cnc(N)c(-c2nc3ccccc3o2)c1 [Example 67.1] | IC50 (Test (a), read-out: IC50 versus Axl tyrosine kinase): ~0.7 nM |
| 99.8 | CNCCN(C)C(=O)c1ccc(-c2cnc(N)c(-c3nc4cccnc4o3)c2)cc1 [Example 45A.85] | – |
| 100.0 | NC(=O)CN1CCC(n2cc(-c3cnc(N)c(-c4nc5ccccc5o4)c3)cn2)CC1 [Example 53.6] | – |
| 100.0 | COCc1nn(C2CCNCC2)cc1-c1cnc(N)c(-c2nc3c(F)cccc3o2)c1 [Example 62.7] | – |
| 100.0 | Nc1ncc(-c2cnn(C3CCN(CCO)CC3)c2)cc1-c1nc2ncccc2o1 [Example 53.5] | – |
| 96.3 | Nc1ncc(-c2ccc(C(=O)N3CCCC4(CCNCC4)C3)cc2)cc1-c1nc2cccnc2o1 [Example 45A.91] | – |
| 95.3 | Nc1ncc(-c2ccc(C(=O)N3CCC4(CCNCC4)CC3)cc2)cc1-c1nc2cccnc2o1 [Example 45A.100] | – |
| 99.6 | CN(C)CC(=O)N1CCC(n2cc(-c3cnc(N)c(-c4nc5cccnc5o4)c3)cn2)CC1 [Example 59.7] | – |
